Reference: patent EP4707280A1, “1,4-CINEOLE DERIVATIVE AND INTERMEDIATE THEREOF, HERBICIDE CONTAINING SAID DERIVATIVE AS ACTIVE INGREDIENT, METHOD FOR USING HERBICIDE, AND METHOD FOR PREPARING AGROCHEMICAL COMPOSITION” (HOKKO CHEMICAL INDUSTRY CO., LTD., priority 2023, dated 2024)

Key:
Type in all cases: in vivo
[1] = tested on: Echinochloa crus-galli var. formosensis at the three-leaf stage; assay: Comparative Example: herbicidal effect test by application during growth period of paddy rice (three-leaf stage, Table 7); settings: active ingredient 7.5 g per 10 ares, emulsifiable concentrate applied by dropper to flooded pots, 21 days after chemical application, triplicate; for inhibition at 75 g/ha: 504 h, read-out: Weed inhibition rate (%)
Protocol: As an example, the herbicidal effect on Echinochloa crus-galli var. formosensis at the three-leaf stage was confirmed by the following method, and the results are specifically shown in Table 7 as a comparative example.
Wagner pots with an area of […] were filled with paddy soil, followed by addition of water and incorporation of chemical fertilizer (N:P:K = 16:16:16), after which puddling was performed. After that, 30 seeds of Echinochloa crus-galli var. formosensis were sown at a depth of 0 cm to 1 cm. Immediately after sowing, the pots were flooded and a water depth of approximately 3 cm was maintained. Subsequent management was conducted in a glass greenhouse. When Echinochloa crus-galli var. formosensis reached the three-leaf stage, an emulsifiable concentrate prepared according to Formulation Example 5 using the compound shown below was diluted with water, and a specified amount of the diluted solution was applied by dropper. The amount of the active ingredient to be applied was equivalent to 7.5 g per 10 ares. The test was conducted in triplicate for each chemical concentration group, and the weed inhibition rate (%) was determined 21 days after chemical application using the following formula (Math. 1).

[2] = tested on: Echinochloa crus-galli var. formosensis; assay: Test Example 1: herbicidal effect test by soil application in paddy rice; settings: Echinochloa crus-galli, soil, 336 h; 120 g active ingredient per 10 ares; applied immediately after sowing, flooded pots; 14 days after application; read-out: weed inhibition rate
Procedure, shortened: (§1)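 Paddy soil in Wagner pots (1/10,000 acre) was fertilized (N:P:K 16:16:16) and puddled, then weed seeds were sown 0–1 cm deep, 30 each. Pots were flooded to ~3 cm and kept in a glass greenhouse. Emulsifiable concentrate diluted in water was dropped on immediately after sowing at 120 g a.i. per 10 ares.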

[3] = tested on: Echinochloa crus-galli var. formosensis; assay: Test Example 2: herbicidal effect test by application during growth period of paddy rice; settings: Echinochloa crus-galli; 120 g per 10 ares; applied seven days after sowing, flooded pots; 14 days after application; read-out: weed inhibition rate
Procedure, shortened: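 Weeds sown into puddled, flooded paddy soil received a post-emergence water application of emulsifiable concentrate at 120 g active ingredient per 10 ares, seven days after sowing. Herbicidal effect was rated 14 days later as inhibition (%).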

Amaranthus viridis [4] = assay: Test Example 3: herbicidal effect test by soil application in upland field; settings: Amaranthus viridis, 120 g per 10 ares, sprayed one day after sowing, 14 days after application, read-out: weed inhibition rate
Procedure, shortened: (§2)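 Pre-emergence test: seeds mixed into top 1 cm of alluvial loam upland soil in pots; emulsifiable concentrate diluted in water sprayed on soil one day after sowing at 100 L/10 a, 120 g a.i./10 a. Weed inhibition rate (%) scored at 14 days, in duplicate.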

Digitaria ciliaris [5] = assay: as above; settings: Digitaria ciliaris, 120 g per 10 ares, sprayed one day after sowing, 14 days after application, read-out: weed inhibition rate
Procedure, shortened: as §2

Echinochloa crus-galli [6] = assay: as above; settings: Echinochloa crus-galli, 120 g per 10 ares, sprayed one day after sowing, 14 days after application, read-out: weed inhibition rate
Procedure, shortened: as §2

Echinochloa crus-galli [7] = assay: Test Example 4: herbicidal effect test by stem and leaf treatment in upland field; settings: Echinochloa crus-galli; 120 g per 10 ares; sprayed seven days after sowing, upland soil; 14 days after application; read-out: weed inhibition rate
[8] = tested on: Echinochloa crus-galli var. formosensis; assay: Test Example 5: herbicidal effect test by soil application in paddy rice (low dose); settings: Echinochloa crus-galli, soil, 336 h; 7.5 g per 10 ares; applied immediately after sowing, flooded pots; 14 days after application; read-out: weed inhibition rate
Procedure, shortened: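 Pots of puddled, fertilized paddy soil receive 30 seeds per species at 0–1 cm depth and are flooded to about 3 cm. The diluted emulsifiable concentrate is then dropped onto the water, delivering 7.5 g active ingredient per 10 ares. Greenhouse grown; herbicidal effect scored 14 days later, two replicates.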

[9] = tested on: Echinochloa crus-galli var. formosensis; assay: Test Example 6: herbicidal effect test by application during growth period of paddy rice (low dose); settings: Echinochloa crus-galli; 7.5 g per 10 ares; applied seven days after sowing, flooded pots; 14 days after application; read-out: weed inhibition rate
Procedure, shortened: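 Low-dose water application, 7.5 g a.i. per 10 ares, given by dropper into flooded pots (about 3 cm depth) 7 days after sowing of 30 weed seeds each at 0–1 cm. Evaluation of inhibition (%) took place 14 days later, duplicate per rate.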

Digitaria ciliaris [10] = assay: Test Example 7: herbicidal effect test by soil application in upland field (low dose); settings: Digitaria ciliaris, 7.5 g per 10 ares, sprayed one day after sowing, 14 days after application, read-out: weed inhibition rate
Procedure, shortened: (§3)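 Low-dose soil treatment at 7.5 g a.i. per 10 a, applied as a diluted emulsifiable concentrate sprayed onto the soil surface one day after sowing in upland alluvial loam. Duplicate pots; percent weed inhibition is read 14 days after application.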

Echinochloa crus-galli [11] = assay: as above; settings: Echinochloa crus-galli, 7.5 g per 10 ares, sprayed one day after sowing, 14 days after application, read-out: weed inhibition rate
Procedure, shortened: as §3

Amaranthus viridis [12] = assay: as above; settings: 7.5 g per 10 ares, sprayed one day after sowing, upland soil, 14 days after application, read-out: weed inhibition rate
Echinochloa crus-galli [13] = assay: Test Example 8: herbicidal effect test by stem and leaf treatment in upland field (low dose); settings: Echinochloa crus-galli; 7.5 g per 10 ares; sprayed seven days after sowing, upland soil; 14 days after application; read-out: weed inhibition rate
Scirpus juncoides [14] = assay: Test Example 1: herbicidal effect test by soil application in paddy rice; settings: Schoenoplectiella juncoides, soil, 336 h; 120 g active ingredient per 10 ares; applied immediately after sowing, flooded pots; 14 days after application; read-out: weed inhibition rate
Procedure, shortened: as §1

Lindernia pyxidaria = assay: as above; settings: 336 h, 120 g active ingredient per 10 ares, applied immediately after sowing, flooded pots, 14 days after application, read-out: weed inhibition rate
Protocol: (§4) Wagner pots with an area of […] were filled with paddy soil, followed by addition of water and incorporation of chemical fertilizer (N:P:K = 16:16:16), after which puddling was performed. After that, seeds of Echinochloa crus-galli var. formosensis, broad-leaved weeds (Lindernia pyxidaria and Monochoria vaginalis), and Scirpus juncoides were sown at a depth of 0 cm to 1 cm, 30 seeds each. Immediately after sowing, the pots were flooded and a water depth of approximately 3 cm was maintained. Subsequent management was conducted in a glass greenhouse. Immediately thereafter, an emulsifiable concentrate prepared according to Formulation Example 5 using the compound shown below was diluted with water, and a specified amount of the diluted solution was applied by dropper. The amount of the active ingredient to be applied was equivalent to 120 g per 10 ares.
(§5) The present test was conducted in duplicate for each chemical concentration group, and the weed inhibition rate (%) was determined 14 days after chemical application using the following formula (Math. 1). [formula]

Monochoria vaginalis = assay: as above; settings: Pontederia vaginalis, soil, 336 h; 120 g active ingredient per 10 ares; applied immediately after sowing, flooded pots; 14 days after application; read-out: weed inhibition rate
Protocol: as §4, §5

Chenopodium album [15] = assay: Test Example 4: herbicidal effect test by stem and leaf treatment in upland field; settings: 120 g per 10 ares, sprayed seven days after sowing, upland soil, 14 days after application, read-out: weed inhibition rate
Digitaria ciliaris [16] = assay: as above; settings: Digitaria ciliaris; 120 g per 10 ares; sprayed seven days after sowing, upland soil; 14 days after application; read-out: weed inhibition rate
Chenopodium album [17] = assay: Test Example 3: herbicidal effect test by soil application in upland field; settings: 120 g per 10 ares, sprayed one day after sowing, 14 days after application, read-out: weed inhibition rate
Procedure, shortened: as §2

Scirpus juncoides [18] = assay: Test Example 5: herbicidal effect test by soil application in paddy rice (low dose); settings: Schoenoplectiella juncoides, 336 h, 7.5 g per 10 ares, applied immediately after sowing, flooded pots, 14 days after application, read-out: weed inhibition rate
Protocol: as §5
as §4, with “(Monochoria” for “(Lindernia pyxidaria and Monochoria”, “7.5” for “120”
The present test was conducted in duplicate for each chemical concentration group, and the herbicidal effect was evaluated 14 days after chemical application using the same criteria as in Test Example 1.

| SMILES | inhibition at 75 g/ha [1] [%] | pest or weed control at 1200 g/ha [2] [%] | inhibition at 1200 g/ha [3] [%] | inhibition at 1200 g/ha (Amaranthus viridis [4]) [%] | inhibition at 1200 g/ha (Digitaria ciliaris [5]) [%] | inhibition at 1200 g/ha (Echinochloa crus-galli [6]) [%] | inhibition at 1200 g/ha (Echinochloa crus-galli [7]) [%] | inhibition at 75 g/ha [8] [%] | inhibition at 75 g/ha (Echinochloa crus-galli [11]) [%] | inhibition at 75 g/ha (Amaranthus viridis [12]) [%] | inhibition at 75 g/ha (Echinochloa crus-galli [13]) [%] | pest or weed control at 1200 g/ha (Scirpus juncoides [14]) [%] | inhibition at 1200 g/ha (Digitaria ciliaris [16]) [%] | other results |
| --- | --- | --- | --- | --- | --- | --- | --- | --- | --- | --- | --- | --- | --- | --- |
| Cc1ccccc1COC1CC2(C(C)C)CCC1(C)O2 (centres unmarked) | 73 |  |  |  |  |  |  |  |  |  |  |  |  |  |
| CC(C)[C@]12C[C@@H](OCc3ccccc3F)[C@](C)(C[C@H]1O)O2 [1-68, (1R,2R,4S,5R)-5-[(2-fluorophenyl)methoxy]-4-methyl-1-isopropyl-7-oxabicyclo[2.2.1]heptan-2-ol] |  | ≥ 80 | ≥ 80 | ≥ 80 | ≥ 80 | ≥ 80 | ≥ 80 | ≥ 80 | ≥ 80 | ≥ 80 | ≥ 80 |  |  | inhibition at 75 g/ha [9]: ≥ 80%; inhibition at 75 g/ha (Digitaria ciliaris [10]): ≥ 80% |
| CC(C)[C@]12C[C@@H](OCc3ccccc3F)[C@](C)(CC1c1ccc(F)cc1)O2 (stereo partly drawn) [1-924, (1S,2R,4R)-2-((2-fluorobenzyl)oxy)-5-(4-fluorophenyl)-4-isopropyl-1-methyl-7-oxabicyclo[2.2.1]heptane] |  | ≥ 80 | ≥ 80 |  |  | ≥ 80 | ≥ 80 |  |  |  |  | ≥ 80 | ≥ 80 | pest or weed control at 1200 g/ha (Lindernia pyxidaria): ≥ 80%; pest or weed control at 1200 g/ha (Monochoria vaginalis): ≥ 80%; inhibition at 1200 g/ha (Chenopodium album [15]): ≥ 80% |
| C=C1C(OCc2ccccc2C)C2(C)CCC1(C(C)C)O2 (centres unmarked) |  |  |  |  |  |  |  |  |  |  |  |  |  | Weed inhibition rate (%) [1]: 20% |
| CC(C)[C@]12C[C@@H](OCc3ccccc3F)[C@](C)(C[C@@H]1C)O2 [1-93, (1S,2R,4R,5S)-2-[(2-fluorophenyl)methoxy]-1,5-dimethyl-4-isopropyl-7-oxabicyclo[2.2.1]heptane] | 100 | ≥ 80 | ≥ 80 |  | ≥ 80 | ≥ 80 | ≥ 80 |  |  |  |  |  | ≥ 80 |  |
| CC(C)[C@]12C[C@@H](OCc3ccccc3C(F)(F)F)[C@](C)(CC1=O)O2 [2-29, (1R,4S,5R)-1-isopropyl-4-methyl-5-((2-(trifluoromethyl)benzyl)oxy)-7-oxabicyclo[2.2.1]heptan-2-one] |  | ≥ 80 | ≥ 80 | ≥ 80 | ≥ 80 | ≥ 80 | ≥ 80 | ≥ 80 | ≥ 80 | ≥ 80 | ≥ 80 | ≥ 80 | ≥ 80 | inhibition at 1200 g/ha (Chenopodium album [17]): ≥ 80%; inhibition at 75 g/ha (Scirpus juncoides [18]): ≥ 80% |
